From patent US12679838B2, “Aromatic compound and application thereof in antitumor drug” (Shanghai Zheye Biotechnology Co., Ltd., priority 2020, dated 2026)
Like-named read-outs stand apart in the source and are kept apart here.

How the values were obtained:
[1] = system: NCI-H358 cells; assay: Cell proliferation inhibitory activity, NCI-H358 (CellTiter-Glo); assay type: cell-based; conditions: for IC50: Homo sapiens, read-out: Cell proliferation inhibitory activity IC50 value of NCI-H358
Experimental: NCI-H358 cells in an exponential growth phase were digested with trypsin-EDTA and plated in a 96-well plate at 2000-3000 cells per well and incubated overnight at 37° C. with 5% CO2. A test compound was prepared as a mother liquor with DMSO, diluted with a RPMI 1640 growth medium in a concentration gradient and added to the 96-well plate and incubated for 72 hours at 37° C. in a 5% CO2 incubator. After incubation, an equal volume of CellTiter-Glo detection reagent was added to each well and incubated after shaking, and a chemiluminescence value was measured by a microplate reader, and the IC50 value for the inhibition of NCI-H358 cell proliferation was fitted and calculated by GraphPad Prism software.
The inhibitory effect of the compounds on the proliferation activity of H358 cells was tested with reference to the method of the biological test 2, and the results were as follows:
The inhibitory effect of the compounds on the proliferation activity of NCI-H358 cells was tested with reference to the method of the biological test 2, and the results were as follows.

[2] = Two-week repeated dosing safety test; assay type: in vivo; conditions: SD rats, 400 mg/kg oral gavage once a day, 14 days
Experimental: Samples for testing: compound 3-29; compound 3-16M; and compound 3-32.
Animal species and number: SD rats; 6 rats per group (half male and half female).
Mode of administration: oral gavage.
Animal grouping and administration dose: solvent blank group and compound 3-29 group (400 mg/kg); compound 3-16M group (400 mg/kg); and compound 3-32 group (400 mg/kg).
Administration frequency: once a day, and administration for 14 days.
After administration, a toxic reaction was observed by cages for 4 hours, and detailed clinical observation was made on animals with obvious abnormal performances. General clinical observation included twice a day during the duration of test (once in the morning and once in the afternoon). Death, morbidity, respiration, secretion, faeces, diet, drinking water, and other conditions were observed and weight changes of the rats during administration were recorded. Detailed clinical observations included but were not limited to behavioral activity, skin, coat, eyes, ears, nose, abdomen, external genitals, anus, extremities, feet, and respiration. After the administration, the animals in each group were euthanized, and all the animals were dissected and observed grossly.

Row | Compound | cell proliferation inhibitory activity against KRAS G12C mutant cells NCI-H358 (in words) [1] | IC50 ([1]; biological test 7, NCI-H358 cells) [µM] | general observation: water intake, feeding, activity, body weight [2] | IC50 ([1]; NCI-H358, biological test 7, NCI-H358 cells) [µM]
1 | C=CC(=O)N1CCN(c2nc(=O)n(-c3c(CF)ccnc3C(C)C)c3nc(-c4ccccc4C=O)c(Cl)cc23)[C@@H](C)C1 [Compound 3-29] | significant cell proliferation inhibitory activities | < 0.05 | no obvious abnormal performance | –
2 | C=CC(=O)N1CCN(c2nc(=O)n(-c3c(CN(C)C)ccnc3C(C)C)c3nc(-c4ccccc4C=O)c(Cl)cc23)[C@@H](C)C1 [Compound 3-32] | significant cell proliferation inhibitory activities | – | no obvious abnormal performance | < 0.05
